According to PMC13083723 (Patterns, 2026):
Residues, ends and D or L forms follow the SMILES beside them. *: point of attachment. PhAc = O=C(Cc1ccccc1)*

Test system: Vero-E6 cells
Test: cells
Type: cell-based
Conditions: Chlorocebus sabaeus, Vero C1008, 24 h, read-out: PL_Result

SMILES | activation at 10 µM
O=C(NCc1ccc(F)cc1)N1CCN2C(=O)OC(c3ccccc3)(c3ccccc3)C2C1 (stereo not shown) [SPE_A63344375] | -2.64%
CC1(C)S[C@@H]2[C@H](NC(=O)C(C(=O)O)c3ccsc3)C(=O)N2[C@H]1C(=O)O (stereo partly shown) [SPE_A55051145] | -6.58%
NC(C(=O)O)c1nnn[nH]1 (stereo not shown) [SPE_A14757586] | -5.28%
CC(C)Oc1ccc(-c2nc(-c3cccc4c3CC[C@@H]4NCCO)no2)cc1C#N [SPE_K46625559] | -0.603%
CC(C)(C)OC(=O)N[C@H]1CCCCC/C=C\[C@@H]2C[C@@]2(C(=O)NS(=O)(=O)C2CC2)NC(=O)[C@@H]2C[C@@H](OC(=O)N3Cc4cccc(F)c4C3)CN2C1=O [SPE_K08111240] | -7.46%
O=C(Cn1c(=O)sc2ccc(Cl)cc21)N1CCN(CCO)CC1 [SPE_K27293958] | 2.56%
S=c1[nH]cnc2nc[nH]c12 [SPE_K91601245] | -8.41%
OC(c1ccccc1)C1CCN(CCc2ccccc2)CC1 (stereo not shown) [SPE_A62057054] | 3.01%
CC(C)OC(=O)OCOP(=O)(CO[C@H](C)Cn1cnc2c(N)ncnc21)OCOC(=O)OC(C)C [SPE_K61868322] | -3.62%
CC[C@@H]([C@H](C)O)n1ncn(-c2ccc(N3CCN(c4ccc(OC[C@@H]5CO[C@@](Cn6cncn6)(c6ccc(F)cc6F)C5)cc4)CC3)cc2)c1=O [SPE_K06222852] | -4.55%
Cc1[nH]cnc1CN1CCc2c(c3ccccc3n2C)C1=O [SPE_K46742498] | 6.83%
Cc1c(-c2ccnn2C)cc(C(=O)NCc2ccc(S(C)(=O)=O)cn2)c(=O)n1-c1cccc(C(F)(F)F)c1 [SPE_K31476763] | -9.37%
COc1cc2c(cc1NS(=O)(=O)c1ccc(Br)cc1C)n(C)c(=O)n2C [SPE_K92658264] | -2.45%
Cc1c(CN2CCN(C(=O)[C@H](C)O)CC2)sc2c(N3CCOCC3)nc(-c3cnc(N)nc3)nc12 [SPE_K23228615] | -5.95%
c1ccc(CCCCN2CCC(c3ccccc3)CC2)cc1 [SPE_K78061844] | 42.6%
O=C(O)CC(S)C(=O)O (stereo not shown) [SPE_A43435802] | 5.6%
CC(C)[N+](C)(CCOC(=O)C1c2ccccc2Oc2ccccc21)C(C)C [SPE_K90885812] | -7.34%
C=CCC1(CC(C)C)C(=O)NC(=O)NC1=O [SPE_K71350836] | -15.8%
Nc1c[n+](N2CCOCC2)no1 [SPE_K72922393] | -10.9%
N=C(N)NCc1cccc(I)c1 [SPE_K43860855] | -5.07%
CC(C)c1c(NC(=O)Nc2ccc(Cl)cc2)c(=O)n(-c2ccccc2)n1C [SPE_K16497916] | -9.16%
CC(C)CC(NC(=O)C1CCCN1)C(=O)NCC(N)=O (stereo not drawn) [SPE_A09911125] (H-Pro-Leu-Gly-NH2; configuration not given here) | -6.88%

SMILES | activation at 10 µM
COc1cc2ncnc(Nc3ccc(F)c(Cl)c3)c2cc1OCCCN1CCOCC1 [SPE_K64052750] | -10.1%
C[C@H](N)[C@H](O)c1cccc(O)c1 [SPE_K96253961] | -12.2%
O=[N+]([O-])c1ncc[nH]1 [SPE_K26824830] | -1.75%
COc1cc(N2CCC(O)CC2)ccc1Nc1cc(Nc2ccccc2S(=O)(=O)C(C)C)c2cc[nH]c2n1 [SPE_K94853001] | -4.69%
Nc1nc(NCCc2ccc(O)cc2)nc2nc(-c3ccco3)nn12 [SPE_K19605405] | -2.19%
COc1ccc(F)c(F)c1C(=O)c1cnc(NC2CCN(S(C)(=O)=O)CC2)nc1N [SPE_K52233191] | -6.09%
CCC/C=C1\OC(=O)C2=C1CCC=C2 [SPE_K48875051] | -12.3%
N=C(N)NC(=O)c1cnccn1 [SPE_K61693562] | -1.49%
COc1cccc(-c2cc(NCc3ccc4c(c3)OCO4)nc(N)n2)c1 [SPE_K42624714] | -1.5%
COc1cc(NS(=O)(=O)c2ccc(N)cc2)ncn1 [SPE_K14116214] | -1.27%
Clc1ccc(Cn2c(CN3CCCC3)nc3ccccc32)cc1 [SPE_K04704168] | 18%
NS(=O)(=O)c1ccc(-n2nc(C(F)(F)F)cc2-c2ccc(Cl)cc2)cc1 [SPE_K76365178] | -2.4%
O=S(=O)(c1cccc2c(O)nccc12)N1CCCNCC1 [SPE_K77793136] | -5.16%
O=C(O)c1ccccc1-c1ccc(C(F)(F)F)cc1 [SPE_K99506538] | 0.609%
COC(=O)CCC(=O)CN [SPE_K01292611] | -7.57%
CC(C)(C)NCC(O)COc1cccc2[nH]c(=O)[nH]c12 (stereo not shown) [SPE_A40084411] | 1.76%
Nc1ccc(S(=O)(=O)Nc2ccc(Cl)nn2)cc1 [SPE_K32021043] | 5.81%
CCc1c(C(=O)C(N)=O)c2c(OCC(=O)O)cccc2n1Cc1ccccc1 [SPE_K09711437] | -15.1%
CC(C)=CCC[C@](C)(O)[C@H]1CC[C@]2(C)[C@@H]1[C@H](O)C[C@@H]1[C@@]3(C)CC[C@H](O)C(C)(C)[C@@H]3CC[C@]12C [SPE_K60005752] | -8.61%
Cn1c2c(c3ccccc31)CCNCC2 [SPE_K16551401] | 7.36%
CCN(CC)Cc1ccc(C(=O)N(CCc2ccccc2OC)[C@@H]2CCNC2)cc1 [SPE_K11821338] | -4.98%
CC(C)(C)NC[C@H](O)c1ccc(O)c(CO)c1 [SPE_K34469523] | -6.61%

SMILES | activation at 10 µM
Fc1ccc(-c2c3cccc(C(F)(F)F)c3nn2Cc2ccc(F)cc2Cl)cc1 [SPE_K54520417] | -2.25%
CN1Cc2c(C(=O)OC(C)(C)C)ncn2-c2ccsc2C1=O [SPE_K80778372] | 4.64%
COc1ccccc1N1CCN(CCN(C(=O)C2CCCCC2)c2ccccn2)CC1 [SPE_K69812556] | -15.3%
CCCCC/C=C\C/C=C\CCCCCCCC(=O)NCCCC(=O)O [SPE_K46254452] | 0.426%
COc1cc(/C=C/C(=O)O)ccc1O [SPE_K66295376] | -10.8%
Clc1ccc(Nc2nnc(Cc3ccncc3)c3ccccc23)cc1 [SPE_K70163715] | -2.12%
CCCCCCCCCCCCCCCCCCCCCC(=O)Nc1ccn([C@@H]2O[C@H](CO)[C@@H](O)[C@@H]2O)c(=O)n1 [SPE_K32007074] | -0.592%
CCC(=O)NO [SPE_K11984358] | -5.92%
Cc1c(Cl)cccc1S(=O)(=O)Nc1nc(NCCc2ccccc2)nc2c1CN(Cc1ccccc1)CC2 [SPE_K35772771] | -25%
C[C@]12CC[C@H]3[C@@H](CCC4=CC(=O)CC[C@@H]43)[C@@H]1CC[C@@H]2O [SPE_K52080565] | -3.9%
CC(C)Oc1ccc2c(=O)c3cc(C(=O)O)ccc3oc2c1 [SPE_K59339270] | -2.83%
COc1ccc(-c2cc(=O)c3c(OC)c(OC)c(OC)c(OC)c3o2)cc1OC [SPE_K06753942] | 17.9%
CCOC(=O)c1ccccc1OC(N)=O [SPE_K21892374] | 3.89%
CC(C)(C)c1ccc(-c2nc3ccccc3[nH]2)cc1 [SPE_K73073971] | 9.59%
COc1ccc(CC2NCCc3cc(OC)c(OC)cc32)cc1OC (stereo not shown) [SPE_A91831168] | -15.9%
CC[n+]1c(-c2ccccc2)c2cc(N)ccc2c2ccc(N)cc21 [SPE_K28354016] | 9.76%
CCOC(=O)CNC(=O)[C@@H]1CCCN1C(=O)Cc1ccccc1 [SPE_K22520627] (PhAc-Pro-Gly-OEt) | -4.57%
N#Cc1cnc2cnc(NCc3cccnc3)cc2c1Nc1ccc(F)c(Cl)c1 [SPE_K51776215] | 4.19%
CCS(=O)(=O)N1CCC[C@@H]2CN3CCc4cc(OC)ccc4[C@@H]3C[C@@H]21 [SPE_K86600316] | -8.68%
Cc1cccc(Nc2ccncc2S(=O)(=O)NC(=O)NC(C)C)c1 [SPE_K30480208] | -3.18%
CC(=O)Nc1ccc(OC[C@](C)(O)C(=O)Nc2ccc([N+](=O)[O-])c(C(F)(F)F)c2)cc1 [SPE_K82164249] | -13.9%
Nc1nc(OCc2ccccc2)c2nc[nH]c2n1 [SPE_K92041145] | -3.41%

SMILES | activation at 10 µM
C=C(c1ccc(C(=O)O)cc1)c1cc2c(cc1C)C(C)(C)CCC2(C)C [SPE_K92441787] | -8.8%
Cc1cccc(C)c1NC(=O)CN1CCN(CCCC(c2ccc(F)cc2)c2ccc(F)cc2)CC1 [SPE_K62996583] | 90.9%
CC(=O)NNC(=O)N1Cc2ccccc2Oc2ccc(Cl)cc21 [SPE_K52512893] | -10.6%
O=C(Nc1cccnc1)N1CCC(Cc2cccc(Oc3ccc(C(F)(F)F)cn3)c2)CC1 [SPE_K68997413] | 1.53%
CN1CCN(c2c(F)cc3c(=O)c(C(=O)O)cn4c3c2SCC4)CC1 [SPE_K62374253] | -11.9%
O=C1OC(c2ccc(O)cc2)(c2ccc(O)cc2)c2ccccc21 [SPE_K19227686] | 1.99%
CNCC(=O)O [SPE_K51263939] | -0.786%
C=CC(=O)N1CCC(Oc2cc3c(Nc4ccc(Cl)c(Cl)c4F)ncnc3cc2OC)CC1 [SPE_K50010139] | -3.41%
Cc1cc(C)nc(NS(=O)(=O)c2ccc(NC(=S)NC(=O)COc3ccc(Br)cc3Cl)cc2)n1 [SPE_K22829793] | -2.21%
O=C(Nc1ccc(S(=O)(=O)C(F)(F)F)cc1)C1=CCN(c2ncccc2C(F)(F)F)CC1 [SPE_K87665527] | 1.59%
CC(C)c1ccc(CC(=O)N2CCC[C@@H](c3cccc(OC(C)(C)C(=O)O)c3)C2)cc1 [SPE_K96843359] | -10.8%
Nc1ccc(S(=O)(=O)Nc2ccnn2-c2ccccc2)cc1 [SPE_K10671814] | -1.85%
CCN(CC)C(=S)SSC(=S)N(CC)CC [SPE_K32744045] | 5.11%
Nc1ccn([C@H]2CC[C@@H](CO)O2)c(=O)n1 [SPE_K85925969] | 2.75%
N#Cc1c(Oc2ccc(F)c(NC(=O)Cc3cccc(C(F)(F)F)c3)c2)ccc2nc(NC(=O)C3CC3)sc12 [SPE_K31866293] | 1.45%
CCCCCCCN(CC)CCCC(O)c1ccc(NS(C)(=O)=O)cc1 (stereo not shown) [SPE_A74391928] | -5.8%
CC(CCc1ccccc1)NC(C)C(O)c1ccc(O)cc1 (stereo not shown) [SPE_A36267905] | -4.99%
O=C(c1ccc(CN2CCOCC2)cc1)N1CCN(C2CC2)CC1 [SPE_K79595931] | -2.77%
O=C(O)CCCCC(=O)O [SPE_K10656395] | 4.52%
